Reference: patent publication US20210179620A1, “MESOIONIC I[…] AND DERIVATIVES FOR COMBATING ANIMAL PESTS” (BASF SE, priority 2017, published 2021)

Experiments:
[1] = test system: vetch aphid (Megoura viciae); experiment: Vetch aphid contact or systemic test, broad bean leaf disks in 24-well microtiter plates; type: in vivo; conditions: foliar, 120 h, sprayed broad bean leaf disks, adult aphids, 5 days, read-out: mortality in comparison with untreated controls
Procedure: Vetch Aphid (Megoura viciae):
For evaluating control of vetch aphid (Megoura viciae) through contact or systemic means the test unit consisted of 24-well-microtiter plates containing broad bean leaf disks.
The compounds were formulated using a solution containing 75% v/v water and 25% v/v DMSO. Different concentrations of formulated compounds were sprayed onto the leaf disks at 2.5 μl, using a custom built micro atomizer, at two replications. After application, the leaf disks were air-dried and 5-8 adult aphids placed on the leaf disks inside the microtiter plate wells. The aphids were then allowed to suck on the treated leaf disks and incubated at about 23+1° C. and about 50+5% relative humidity for 5 days. Aphid mortality and fecundity was then visually assessed.

[2] = test system: green peach aphid (Myzus persicae); experiment: Green peach aphid systemic test, artificial diet in 96-well microtiter plates; type: in vivo; conditions: 72 h, adult aphids on treated artificial diet, 3 days, read-out: mortality in comparison with untreated controls
Text: Green Peach Aphid (Myzus persicae):
For evaluating control of green peach aphid (Myzus persicae) through systemic means the test unit consisted of 96-well-microtiter plates containing liquid artificial diet under an artificial membrane.
The compounds were formulated using a solution containing 75% v/v water and 25% v/v DMSO. Different concentrations of formulated compounds were pipetted into the 30 aphid diet, using a custom built pipetter, at two replications.
After application, 5-8 adult aphids were placed on the artificial membrane inside the microtiter plate wells. The aphids were then allowed to suck on the treated aphid diet and incubated at about 23˜1° C. and about 50˜5% relative humidity for 3 days. Aphid mortality and fecundity was then visually assessed.

Compound: Cn1c(C(=O)CCl)c([O-])[n+]2c1SCC2c1cnc(Cl)s1 (centres unmarked) [C-1, 6-(2-chloroacetyl)-3-(2-chlorothiazol-5-yl)-7-methyl-2,3-dihydroimidazo[2,1-b]thiazol-4-ium-5-olate]
- mortality at 2500 ppm [1]: > 75%
- mortality at 2500 ppm [2]: > 75%
